Broadly, the inhibition is the drop in the measured response relative to a control, in per cent.

In the first assay the target is T1, purified human HDAC6 (Homo sapiens, UniProt Q9UBN7).
T1 construct: purchased BPS Bioscience 5006
T1 sequence (Q9UBN7 1-1215): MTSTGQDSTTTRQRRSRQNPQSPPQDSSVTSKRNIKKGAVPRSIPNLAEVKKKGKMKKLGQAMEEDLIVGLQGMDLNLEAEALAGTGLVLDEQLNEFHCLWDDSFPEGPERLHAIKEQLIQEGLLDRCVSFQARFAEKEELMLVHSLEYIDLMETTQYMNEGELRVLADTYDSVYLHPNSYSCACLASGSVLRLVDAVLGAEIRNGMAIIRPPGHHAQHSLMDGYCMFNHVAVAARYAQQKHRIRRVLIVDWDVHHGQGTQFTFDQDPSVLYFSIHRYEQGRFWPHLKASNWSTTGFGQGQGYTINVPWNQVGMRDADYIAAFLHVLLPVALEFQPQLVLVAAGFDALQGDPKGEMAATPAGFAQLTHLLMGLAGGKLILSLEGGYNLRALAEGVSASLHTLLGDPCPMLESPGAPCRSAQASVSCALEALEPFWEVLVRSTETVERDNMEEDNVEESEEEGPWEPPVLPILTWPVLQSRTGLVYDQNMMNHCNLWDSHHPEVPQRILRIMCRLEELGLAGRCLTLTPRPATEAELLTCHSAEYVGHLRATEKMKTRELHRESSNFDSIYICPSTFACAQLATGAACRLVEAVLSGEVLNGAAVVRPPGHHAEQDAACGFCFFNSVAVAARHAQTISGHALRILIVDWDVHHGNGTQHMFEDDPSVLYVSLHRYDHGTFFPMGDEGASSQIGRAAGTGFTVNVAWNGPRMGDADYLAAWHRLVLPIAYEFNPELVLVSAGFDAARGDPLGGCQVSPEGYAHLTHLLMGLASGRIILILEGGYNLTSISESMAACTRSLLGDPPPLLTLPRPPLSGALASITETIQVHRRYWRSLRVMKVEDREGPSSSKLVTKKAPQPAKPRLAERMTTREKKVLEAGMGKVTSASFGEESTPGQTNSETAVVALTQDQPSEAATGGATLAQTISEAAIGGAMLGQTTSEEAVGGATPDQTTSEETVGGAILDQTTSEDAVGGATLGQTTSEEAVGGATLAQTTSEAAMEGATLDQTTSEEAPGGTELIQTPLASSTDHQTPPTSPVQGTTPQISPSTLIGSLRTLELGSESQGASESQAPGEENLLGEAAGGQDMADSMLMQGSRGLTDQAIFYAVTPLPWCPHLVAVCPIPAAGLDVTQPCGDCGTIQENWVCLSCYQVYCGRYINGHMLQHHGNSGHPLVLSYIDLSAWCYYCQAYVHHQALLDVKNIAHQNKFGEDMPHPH
The assay is described as follows: HDAC6 Enzyme Assay. In kind it is biochemical. The conditions noted are these: compound concentration 0.37 μM, read-out: Percent Inhibition. The method, boiled down:
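Purified human HDAC6 incubated 1 h at 30° C with Ac-Arg-Gly-Lys(Ac)-AMC peptide plus compound or DMSO; stopped with trichostatin A. Deacetylated product trypsin-digested, released AMC read by fluorescence (Ex 340/Em 460 nm). Percent inhibition at one concentration or IC50 from curves relative to DMSO controls.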
With `O=C(NO)c1ccc2ncn(CCc3cccc(N4CCOCC4)c3)c(=O)c2c1` [Compound I-125, N-hydroxy-3-[2-(3-morpholin-4-ylphenyl)ethyl]-4-oxo-3,4-dihydroquinazoline-6-carboxamide], the inhibition at 0.37 µM came to 88.2%.
Regarding `O=C(NO)c1ccc2ncn(Cc3cccc(-c4cccc(C(=O)NC5CC5)c4)c3)c(=O)c2c1` [Compound I-126, 3-({3′-[(cyclopropylamino)carbonyl]biphenyl-3-yl}methyl)-N-hydroxy-4-oxo-3,4-dihydroquinazoline-6-carboxamide], the inhibition at 0.37 µM worked out at 95.6%.
As to `O=C(NO)c1ccc2c(=O)n(Cc3ccc(C(F)(F)F)cc3)c(-c3cccnc3)nc2c1` [Compound I-133, N-hydroxy-4-oxo-2-pyridin-3-yl-3-[4-(trifluoromethyl)benzyl]-3,4-dihydroquinazoline-7-carboxamide], the inhibition at 0.37 µM came to 92.2%.
Same read-out and setting: with `O=C(NO)c1ccc2c(=O)n(Cc3ccc(C(F)(F)F)cc3)c(-c3ccc(Cl)cc3)nc2c1` [Compound I-134, 2-(4-chlorophenyl)-N-hydroxy-4-oxo-3-[4-(trifluoromethyl)benzyl]-3,4-dihydroquinazoline-7-carboxamide] the figure was 88.6%; with `CS(=O)(=O)c1cccc(Cn2cnc3ccc(C(=O)NO)cc3c2=O)c1` [Compound I-135, N-hydroxy-3-[3-(methylsulfonyl)benzyl]-4-oxo-3,4-dihydroquinazoline-6-carboxamide], 95.3%.
With `COc1ncccc1-c1cccc(Cn2cnc3ccc(C(=O)NO)cc3c2=O)c1` [Compound I-136, N-hydroxy-3-[3-(2-methoxypyridin-3-yl)benzyl]-4-oxo-3,4-dihydroquinazoline-6-carboxamide], the inhibition at 0.37 µM stood at 94%.
On the same count and under the same terms, the same measure for `O=C(NO)c1ccc2ccn(Cc3cccc(-n4ncc5ccccc54)c3)c(=O)c2c1` [Compound I-137, N-hydroxy-2-[3-(1H-indazol-1-yl)benzyl]-1-oxo-1,2-dihydroisoquinoline-7-carboxamide]: 99.5%; for `Cc1ncc(-c2nc3cc(C(=O)NO)ccc3c(=O)n2Cc2ccc(C(F)(F)F)cc2)n1C` [Compound I-138, 2-(1,2-dimethyl-1H-imidazol-5-yl)-N-hydroxy-4-oxo-3-[4-(trifluoromethyl)benzyl]-3,4-dihydroquinazoline-7-carboxamide]: 80.2%.

Staying with this assay, now noted: compound concentration 0.412 μM, read-out: Percent Inhibition.
Regarding `O=C(NO)c1ccc2ncn(Cc3cccc(Cl)c3)c(=O)c2c1` [Compound I-127, 3-(3-chlorobenzyl)-N-hydroxy-4-oxo-3,4-dihydroquinazoline-6-carboxamide], the inhibition at 0.412 µM stood at 96.1%.
Still for that read-out and setting: the same measure for `O=C(NO)c1ccc2ncn(Cc3cccc(-c4ccncc4)c3)c(=O)c2c1` [Compound I-128, N-hydroxy-4-oxo-3-(3-pyridin-4-ylbenzyl)-3,4-dihydroquinazoline-6-carboxamide]: 95.9%; for `O=C(NO)c1ccc2ccn(CCCOc3ccc(-n4ccnc4)cc3)c(=O)c2c1` [Compound I-129, N-hydroxy-2-{3-[4-(1H-imidazol-1-yl)phenoxy]propyl}-1-oxo-1,2-dihydroisoquinoline-7-carboxamide]: 96.3%; for `CCC(CC)Cn1ccc2ccc(C(=O)NO)cc2c1=O` [Compound I-130, 2-(2-ethylbutyl)-N-hydroxy-1-oxo-1,2-dihydroisoquinoline-7-carboxamide]: 93%.
Same read-out and setting: the same measure for `O=C(NO)c1ccc2ccn(CCCc3ccc(Cl)cc3)c(=O)c2c1` [Compound I-131, 2-[3-(4-chlorophenyl)propyl]-N-hydroxy-1-oxo-1,2-dihydroisoquinoline-7-carboxamide]: 96.9%.
In the case of `Cc1nc2cc(C(=O)NO)ccc2c(=O)n1C` [Compound I-132, N-hydroxy-2,3-dimethyl-4-oxo-3,4-dihydroquinazoline-7-carboxamide], the inhibition at 0.412 µM was 59.8%.

The values above are taken from patent US8765773B2, “Substituted hydroxamic acids and uses thereof” (Millennium Pharmaceuticals, Inc., priority 2010, dated 2014).
